Assay results as given in ChEMBL document CHEMBL5608179, “Triptonide induces apoptosis and inhibits the proliferation of ovarian cancer cells by activating the p38/p53 pathway and autophagy” (Bioorg Med Chem, 2024).
Calls of active or inactive are those of the source. The rule behind the calls is not given here.

Experiments:
A2780 [1] = test: Induction of cell cycle arrest in human A2780 cells assessed as accumulation of cells at G2 phase at 4 nM measured after 24 hrs by PI staining based Cell Cycle Analysis Kit (KeyGEN) (reference value: 24.5%); type: functional
A2780 [2] = test: Cytotoxicity against human A2780 cells assessed as cell viability measured after 48 hrs by MTT assay; type: functional, cell-based; settings: A2780, 48 h
A2780 [3] = test: Reduction in p62 expression in human A2780 cells at 5 to 20 nM measured after 24 hrs by Western blot analysis; type: functional, cell-based; settings: dose 5-20 nM
A2780 [4] = test: Induction of apoptosis in human A2780 cells assessed as necrotic cells in presence of p53 SiRNA 2 at 4 nM measured after 24 hrs by Annexin V-FITC/PI flow cytometry (reference value: 0.39%); type: functional
A2780 [5] = test: Induction of apoptosis in human A2780 cells assessed as increase in cleaved caspase 9 level measured after 12 to 48 hrs by Western blot analysis; type: functional, cell-based; settings: dose 5-20 nM, time 12-48 hrs
A2780 [6] = test: Cytotoxicity against human A2780 cells assessed as cell viability in presence of p53 SiRNA 2 measured after 48 hrs by MTT assay; type: functional, cell-based
A2780 [7] = test: Antiproliferative activity against human A2780 cells assessed as number of fluorescent dots in presence of p53 SiRNA 1 in presence of bafilomycin A1 at 4 nM measured after 24 hrs by KitkFluor555 Click-iT EdU Kit staining assay; type: functional, cell-based
Huh-7 = test: Cytotoxicity against human Huh-7 cells assessed as cell viability measured after 48 hrs by MTT assay; type: functional, cell-based; settings: Huh-7, 48 h
[8] = Toxicity in BALB/c-nu mouse subcutaneously inoculated with human A2780 cells assessed as morphological changes of lung at 3 to 5 mg/kg, ip administered every day for 20 days by HE staining analysis; type: organism-based; settings: in vivo, sc, 480 h, dose 3-5 mg/kg, time 20 day
A2780 [9] = test: Cytotoxicity against human A2780 cells assessed as cell viability measured in presence of SB203580 after 48 hrs by MTT assay; type: functional, cell-based
A2780 [10] = test: Induction of apoptosis in human A2780 cells assessed as late apoptotic cells at 4 nM measured after 24 hrs by Annexin V-FITC/PI flow cytometry (reference value: 2.54%); type: functional
A2780 [11] = test: Induction of LC3II expression in human A2780 cells at 5 to 20 nM measured after 24 hrs by Western blot analysis; type: functional, cell-based; settings: dose 5-20 nM
A2780 [12] = test: Induction of apoptosis in human A2780 cells assessed as viable cells in presence of p53 SiRNA 1 at 4 nM measured after 24 hrs by Annexin V-FITC/PI flow cytometry (reference value: 94.2%); type: functional
A2780 [13] = test: Induction of apoptosis in human A2780 cells assessed as early apoptotic cells in presence of SB203580 at 8 nM measured after 24 to 72 hrs by Annexin V-FITC/PI flow cytometry (reference value: 2.82%); type: functional; settings: time 24-72 hrs
A2780 [14] = test: Induction of cell cycle arrest at S phase in human A2780 cells assessed as increase in cyclin B1 proteins measured after 24 hrs by Western blot analysis; type: functional, cell-based; settings: dose 5-20 nM
A2780 [15] = test: Induction of apoptosis in human A2780 cells assessed as increase in cleaved caspase 3 level measured at 5 to 20 nM by Western blot analysis; type: functional, cell-based; settings: dose 5-20 nM, time 12-48 hrs, TDE = time-dependent effect
A2780 [16] = test: Induction of apoptosis in human A2780 cells assessed as increase in cleaved caspase 9 level measured at 5 to 20 nM by Western blot analysis; type: functional, cell-based; settings: dose 5-20 nM, time 12-48 hrs, TDE = time-dependent effect
A2780 [17] = test: Antiproliferative activity against human A2780 cells assessed as number of fluorescent dots in presence of p53 SiRNA 1 at 4 nM measured after 24 hrs by KitkFluor555 Click-iT EdU Kit staining assay; type: functional, cell-based
A2780 [18] = test: Inhibition of colony formation in human A2780 cells at 0.25 to 0.5 uM incubated for 24 hrs by EdU staining based assay; type: functional, cell-based; settings: dose 0.25-0.5 µM
A2780 [19] = test: Induction of cell cycle arrest at S phase in human A2780 cells assessed as increase in cyclin E1 proteins measured after 24 hrs by Western blot analysis; type: functional, cell-based; settings: dose 5-20 nM
A2780 [20] = test: Induction of apoptosis in human A2780 cells assessed as late apoptotic cells in presence of SB203580 at 8 nM measured after 24 to 72 hrs by Annexin V-FITC/PI flow cytometry (reference value: 2.54%); type: functional; settings: time 24-72 hrs
A2780 [21] = test: Induction of apoptosis in human A2780 cells assessed as viable cells at 8 nM measured after 24 to 72 hrs by Annexin V-FITC/PI flow cytometry (reference value: 94.2%); type: functional; settings: time 24-72 hrs, read-out: Activity
A2780 [22] = test: Induction of cell cycle arrest in human A2780 cells assessed as accumulation of cells at G2 phase in presence of SB203580 at 4 nM measured after 24 hrs by PI staining based Cell Cycle Analysis Kit (KeyGEN) (reference value: 24.5%); type: functional
A2780 [23] = test: Induction of apoptosis in human A2780 cells assessed as early apoptotic cells at 8 nM measured after 24 to 72 hrs by Annexin V-FITC/PI flow cytometry (reference value: 2.82%); type: functional; settings: time 24-72 hrs
A2780 [24] = test: Cytotoxicity against human A2780 cells assessed as cell viability measured at 4 to 64 nM by MTT assay; type: functional, cell-based; settings: dose 4-64 nM, time 24-72 hrs, TDE = time-dependent effect
A2780 [25] = test: Induction of apoptosis in human A2780 cells assessed as necrotic cells in presence of bafilomycin A1 at 800 nM measured after 24 hrs by Annexin V-FITC/PI flow cytometry (reference value: 0.18%); type: functional
A2780 [26] = test: Induction of apoptosis in human A2780 cells assessed as increase in cleaved PARP level measured at 5 to 20 nM by Western blot analysis; type: functional, cell-based; settings: dose 5-20 nM, time 12-48 hrs, TDE = time-dependent effect
[27] = Toxicity in BALB/c-nu mouse subcutaneously inoculated with human A2780 cells assessed as morphological changes of liver at 3 to 5 mg/kg, ip administered every day for 20 days by HE staining analysis; type: organism-based; settings: in vivo, sc, 480 h, dose 3-5 mg/kg, time 20 day
A2780 [28] = test: Cytotoxicity against human A2780 cells assessed as cell viability measured after 24 to 72 hrs by MTT assay; type: functional, cell-based; settings: dose 4-64 nM, time 24-72 hrs
A2780 [29] = test: Induction of apoptosis in human A2780 cells assessed as late apoptotic cells at 800 nM measured after 24 hrs by Annexin V-FITC/PI flow cytometry (reference value: 1.58%); type: functional
A2780 [30] = test: Induction of apoptosis in human A2780 cells assessed as early apoptotic cells at 800 nM measured after 24 hrs by Annexin V-FITC/PI flow cytometry (reference value: 2.17%); type: functional
A2780 [31] = test: Induction of cell cycle arrest in human A2780 cells assessed as accumulation of cells at G1 phase at 4 nM measured after 24 hrs by PI staining based Cell Cycle Analysis Kit (KeyGEN) (reference value: 54.2%); type: functional
A2780 [32] = test: Induction of apoptosis in human A2780 cells assessed as viable cells at 4 nM measured after 24 hrs by Annexin V-FITC/PI flow cytometry (reference value: 94.2%); type: functional; settings: read-out: Activity

Question: For `CC(C)[C@]12O[C@H]1[C@@H]1O[C@]13[C@]1(O[C@H]1C[C@H]1C4=C(CC[C@@]13C)C(=O)OC4)[C@@H]2O` [TRIPTOLIDE], which Activity (A2780 [1]) is on record?
Answer: The Activity was 27.4%.

Question: And the IC50 (A2780 [2])?
Answer: The IC50 was 1830 nM.

Question: And the Activity (A2780 [3])?
Answer: The Activity was “Active”.

Question: And the Activity (A2780 [4])?
Answer: The Activity was 6.47%.

Question: And the Activity (A2780 [5])?
Answer: Its Activity is “Dose-Dependent Effect”.

Question: What about the Activity (A2780 [6]) of the same compound?
Answer: Its Activity is “inactive”.

Question: What about the Activity (A2780 [7]) of the same compound?
Answer: Its Activity is “inactive”.

Question: What about the IC50 (Huh-7) of the same compound?
Answer: The IC50 was 74.6 nM.

Question: And the Activity [8]?
Answer: The Activity was “Non-Toxic”.

Question: And the Activity (A2780 [9])?
Answer: Its Activity is “inactive”.

Question: And the Activity (A2780 [10])?
Answer: The Activity was 27.5%.

Question: And the Activity (A2780 [11])?
Answer: Its Activity is “Active”.

Question: What about the Activity (A2780 [12]) of the same compound?
Answer: The Activity was 65.9%.

Question: And the Activity (A2780 [13])?
Answer: The Activity was 13.1%.

Question: And the Activity (A2780 [14])?
Answer: The Activity was “Dose-Dependent Effect”.

Question: What about the Activity (A2780 [15]) of the same compound?
Answer: The Activity was “Tde”.

Question: What about the Activity (A2780 [16]) of the same compound?
Answer: The Activity was “Tde”.

Question: And the Activity (A2780 [17])?
Answer: The Activity was “inactive”.

Question: And the inhibition (A2780 [18])?
Answer: Its inhibition is “Active”.

Question: And the Activity (A2780 [19])?
Answer: The Activity was “Dose-Dependent Effect”.

Question: What about the Activity (A2780 [20]) of the same compound?
Answer: Its Activity is 12%.

Question: What about the viability at 0.008 µM (A2780 [21]) of the same compound?
Answer: Its viability at 0.008 µM is 55.8%.

Question: And the Activity (A2780 [22])?
Answer: The Activity was 31.1%.

Question: And the Activity (A2780 [23])?
Answer: The Activity was 18.6%.

Question: What about the Activity (A2780 [24]) of the same compound?
Answer: The Activity was “Tde”.

Question: And the Activity (A2780 [25])?
Answer: The Activity was 0.75%.

Question: What about the Activity (A2780 [26]) of the same compound?
Answer: Its Activity is “Tde”.

Question: What about the Activity [27] of the same compound?
Answer: The Activity was “Non-Toxic”.

Question: And the Activity (A2780 [28])?
Answer: The Activity was “Dose-Dependent Effect”.

Question: And the Activity (A2780 [29])?
Answer: The Activity was 9.01%.

Question: What about the Activity (A2780 [30]) of the same compound?
Answer: The Activity was 14.7%.

Question: And the Activity (A2780 [31])?
Answer: Its Activity is 40%.

Question: What about the viability at 0.004 µM (A2780 [32]) of the same compound?
Answer: The viability at 0.004 µM was 33.1%.
